Test results: patent US8591895B2, “Combinations for the treatment of diseases involving cell proliferation” (Boehringer Ingelheim International GmbH, priority 2004, dated 2013)
Where two headings read alike, the source gives them in different places.

How the values were obtained:
[1] = Tolerability (body weight) in NCI-H460 tumor-bearing nude mice; conditions: 10 animals per group; Docetaxel 15 mg/kg i.v., alone or with Nr. 46 50 mg/kg i.v.
From the text: (§1) The triangles indicate the treatment days.

NCI-H460 tumors = test: NCI-H460 lung model combination study: tumor growth of subcutaneous xenografts in nude mice; type: in vivo, human; conditions: Docetaxel 15 mg/kg i.v.; for T/C (tumor growth delay): day 17 (end of the controls), Nr. 46 50 mg/kg i.v., once weekly (q7d)x4, alone or combined; for delay of the average time to reach 1000 mm^3 in tumor volume compared to the controls: until day 71 (end of the study), weekly treatment until day 25, Nr. 46 50 mg/kg
From the text: as §1

[2] = for body weight gain: day 26, Nr. 46 50 mg/kg i.v., gemcitabine 100 mg/kg i.p., once weekly, controls gained 6.2%
Method: Suboptimal doses of both compounds were used to facilitate the detection of additive, synergistic or antagonistic effects. Design of the Study • Model: Human adenocarcinoma model BxPC-3 grown as subcutaneous xenografts in nude mice. • Treatment groups (10 animals per group): • Controls Vehicle, i.v., once weekly for 4 weeks ((q7d)×4) • Exemplified compound Nr.
Tumor volumes and animal weights were recorded 3 times per week. Evaluation of therapy results was based on the absolute volumes of individual tumors.
Mice were female BomTac:NMRI-nu/nu. […] Gemcitabin infusion concentrate was diluted with 0.9% NaCl and injected intraperitoneally. The administration volume was 10 ml per kg body weight for both compounds. BxPC-3 tumours were established from cultured BxPC-3. Tumour volumes were determined three times a week using a calliper. The weight of mice was determined as an indicator of tolerability on the same days. Plasma samples were taken on the last treatment day.

[3] = type: in vivo; conditions: day 39, Nr. 46 30 mg/kg i.v., irinotecan 12.5 mg/kg i.p., once weekly; for body weight gain: controls gained 10.3%
BxPC-3 tumours = test: BxPC-3 pancreas model combination study: tumour growth of subcutaneous xenografts in nude mice; type: in vivo, human; conditions: day 26 (end of the controls); Nr. 46 50 mg/kg i.v., gemcitabine 100 mg/kg i.p., once weekly (q7d)x6, alone or combined
HCT 116 tumors = test: HCT 116 colon cancer model combination study: tumor growth of subcutaneous xenografts in nude mice; type: in vivo, human; conditions: Nr. 46 30 mg/kg i.v., irinotecan 12.5 mg/kg i.p.; for T/C (tumor growth delay): day 39 (end of the controls), once weekly (q7d)x10, alone or combined

CC(=O)O[C@@]12CO[C@@H]1C[C@H](O)[C@@]1(C)C(=O)[C@H](O)C3=C(C)[C@@H](OC(=O)[C@H](O)[C@@H](NC(=O)OC(C)(C)C)c4ccccc4)C[C@@](O)([C@@H](OC(=O)c4ccccc4)[C@H]21)C3(C)C [Docetaxel]
mice euthanized due to severe loss of body weight [1]: one mouse had to be euthanized
T/C (tumor growth delay) (NCI-H460 tumors): 42%
delay of the average time to reach 1000 mm^3 in tumor volume compared to the controls (NCI-H460 tumors): 10.5 days

CC[C@@H]1C(=O)N(C)c2cnc(Nc3ccc(C(=O)NC4CCN(C)CC4)cc3OC)nc2N1C1CCCC1 [exemplified compound Nr. 46, 4-[[(7R)-8-cyclopentyl-7-ethyl-5,6,7,8-tetrahydro-5-methyl-6-oxo-2-pteridinyl]amino]-3-methoxy-N-(1-methyl-4-piperidinyl)-benzamide]
body weight gain [2]: 8.2%
body weight gain [3]: 8.6%
T/C (tumour growth delay) (BxPC-3 tumours): 28%
T/C (tumor growth delay) (NCI-H460 tumors): 65%
delay of the average time to reach 1000 mm^3 in tumor volume compared to the controls (NCI-H460 tumors): 4.0 days
T/C (tumor growth delay) (HCT 116 tumors): 20%
delay of the average time to reach 1000 mm^3 in tumor volume (HCT 116 tumors; day 121 (end of the study), weekly treatment until day 64): 33.7 days

Nc1ccn([C@@H]2O[C@H](CO)[C@@H](O)C2(F)F)c(=O)n1 [gemcitabine, Gemcitabine]
body weight gain [2]: 8.8%
tolerability of higher doses ([2]; mouse, in vivo): not tolerated
T/C (tumour growth delay) (BxPC-3 tumours): 65%

CCc1c2c(nc3ccc(OC(=O)N4CCC(N5CCCCC5)CC4)cc13)-c1cc3c(c(=O)n1C2)COC(=O)[C@]3(O)CC [irinotecan]
tolerability [3]: well tolerated
body weight gain [3]: 5.9%
T/C (tumor growth delay) (HCT 116 tumors): 25%
